Test results as given in patent US4749703A, “Calcium antagonist piperazine derivatives, and compositions therefor” (Dainippon Pharmaceutical Co., Ltd., priority 1984, dated 1988).
Where a name gives a salt, the structure may show the parent alone.

How the values were obtained:
[1] = system: spontaneously hypertensive rats (SHR); assay: Antihypertensive activity in spontaneously hypertensive rats (SHR); type: in vivo, male SHR (Okamoto and Aoki strain) rats; details: for Peak time (time of maximum hypotensive effect): p.o.; for duration of antihypertensive activity (in words): compared with commercially available calcium antagonists
Description: The animals used were male SHR [Okamoto and Aoki strain; cf. Jap. Circul. […] Proc. Soc. […] The other end of the cannula was exposed through the skin on the back of the neck and fixed. After 1 to 4 days, the aortic cannula was connected to a pressure transducer (produced by Nihon Koden Co., Ltd., Japan; Model MP-4T), and conscious blood pressure was measured by direct method. On the day of the experiment, the blood pressure was measured for one hour prior to dosing. The test compound, suspended in 0.5% aqueous tragacanth solution, was administered orally at a volume of 3.0 ml/kg and the blood pressure was measured continuously for 5 hours.
The changes of blood pressure are expressed by the mean pressure calculated from the values of systolic and diastolic pressure.

[2] = system: methacholine-induced ST elevation; assay: Preventive effect on methacholine-induced ST elevation (experimental model of variant angina); type: in vivo, Male SD strain rats; details: i.v.; for ST elevation, administn. of M (8 μg) after administn. of test compd. (at peak time): ± S.E.; for preventive effect on the ST elevation (in words): compared with diltiazem hydrochloride
Description: (2) Preventive effect on methacholine-induced ST elevation (effect in experimental model of variant angina)
The test was carried out according to the method of Sakai et al. [cf. J. Pharmacol. Methods, 5, 325-336 (1981)].
Male SD strain rats, weighing about 500 g, were anesthetized with 60 mg/kg (i.p.) of sodium pentobarbital. Lead II electrocardiogram was recorded. The ST elevation was produced with 8.0 μg of metacholine given into the coronary […] through the cannula inserted from the right carotid artery. The test compound, dissolved in 5% ethanol-physiological saline solution, was administered intravenously. The amplitude of ST elevation was measured by means of the computer 0.5, 5 and 10 minutes after the administration of the test compound and afterward at intervals of 10-minute. The effect of the test compound was evaluated by comparing the amplitude of ST elevation after administration of the test compound with that before the administration. Each group of 5 rats was used for each dose of the test compound.
The abbreviation M in the table represents metacholine.

[3] = system: vasopressin-induced ST depression; assay: Preventive effect on vasopressin-induced ST depression (experimental model of angina pectoris); type: in vivo, Male Donryu strain rats; set-up: key to Preventive effect on ST depression, 7 hours / Preventive effect on ST depression, 1 hour / Preventive effect on ST depression, 5 hours / Preventive effect on ST depression, 3 hours: +: Significantly different from vehicle control (P < 0.05); -: No significant difference; details: for Preventive effect on ST depression, 1 hour: 1 hour following administration; for Preventive effect on ST depression, 3 hours: 3 hours following administration; for Preventive effect on ST depression, 5 hours: 5 hours following administration; for Preventive effect on ST depression, 7 hours: 7 hours following administration; for preventive effect on the ST depression (in words): p.o., compared with diltiazem hydrochloride
Description: (1) Preventive effect on vasopressin-induced ST depression (effect in experimental model of angina pectoris)
The test was carried out according to the method of Hatano et al. [cf. Pharmacometrics, 19, 311-317 (1980)].
Male Donryu strain rats, weighing 130-180 g, were anesthetized with 60 mg/kg (i.p.) of sodium pentobarbital. Lead II electrocardiogram was recorded. The ST depression produced with 0.2 IU/kg (i.v.) of vasopressin was recorded at intervals of a given period for 5 minutes after the administration of vasopressin. The test compound, suspended in 0.5% aqueous tragacanth solution, was administered orally 1, 3, 5 and 7 hours before the administration of vasopressin. The amplitude of ST depression was measured by means of the computer, and the data were analyzed statistically by two-dimensional analysis between the control group and the treated group to evaluate the effect of the test compound. Each group of 5 rats was used for each dose of the test compound.

in vivo = details: mouse, mortality for 7 days
Source text: STD-ddY strain mice were used in groups of 10 animals each.

[4] = 0.3 mg/kg, * P < 0.05, ** P < 0.01

Compound | Peak time (time of maximum hypotensive effect) ([1]; 30 mg/kg) [h] | maximum hypotensive effect (decrease compared with the initial blood pressure) ([1]; oral, 30 mg/kg) | time of maximum hypotensive effect ([1]; oral, 30 mg/kg) [h] | peak time (preventive effect on ST elevation) ([2]; 0.1 mg/kg) [min] | ST elevation, administn. of M (8 μg) after administn. of test compd. (at peak time) ([2]; 0.1 mg/kg, * P < 0.05) | peak time (preventive effect on ST elevation) ([2]; 0.3 mg/kg) [min] | ST elevation, administn. of M (8 μg) after administn. of test compd. (at peak time) [2, 4] | preventive effect on the ST elevation (in words) [2] | Preventive effect on ST depression, 1 hour ([3]; 3 mg/kg p.o.) | Preventive effect on ST depression, 3 hours ([3]; 3 mg/kg p.o.) | Preventive effect on ST depression, 1 hour ([3]; 10 mg/kg p.o.) | Preventive effect on ST depression, 5 hours ([3]; 10 mg/kg p.o.) | Preventive effect on ST depression, 7 hours ([3]; 30 mg/kg p.o.) | other results
O=C(CCCN1CCN(c2ccc(F)cc2)CC1)NC1c2ccccc2C[S+]([O-])c2ccccc21 (single isomer, unassigned) [Example 136, 11-[4-[4-(4-fluorophenyl)-1-piperazinyl]butyrylamino]-6,11-dihydrodibenzo[b,e]thiepin-5-oxide-A] | 5 | 12-14% | 4 to 5 |  |  |  |  |  |  |  |  |  |  | 
Cc1ccc2c(c1)C(NC(=O)CCCN1CCN(c3ccc(F)cc3)CC1)c1ccccc1CS2 (stereo not shown) [2(1), 11-[4-[4-(4-fluorophenyl)-1-piperazinyl]butyrylamino]-2-methyl-6,11-dihydrodibenzo[b,e]thiepin] |  |  |  |  |  |  |  |  |  |  |  |  |  | duration of antihypertensive activity (in words) [1]: longer duration of antihypertensive activity than that of the commercially available calcium antagonists
Cc1ccc2c(c1)C(NC(=O)CCCN1CCN(c3ccc(F)cc3)CC1)c1ccccc1CS2 (stereo not shown) [2(3), 11-[4-[4-(4-fluorophenyl)-1-piperazinyl]butyrylamino]-2-methyl-6,11-dihydrodibenzo[b,e]thiepin] | 4 | 12-14% | 4 to 5 | 5 | +0.19 ± 0.05 ΔmV | 0.5 | +0.13 ± 0.02 ΔmV | preventive effect on the ST elevation comparable to that of diltiazem hydrochloride | - | - | + | + | + | Preventive effect on ST depression, 5 hours ([3]; 3 mg/kg p.o.): -; Preventive effect on ST depression, 7 hours ([3]; 3 mg/kg p.o.): -; Preventive effect on ST depression, 3 hours ([3]; 10 mg/kg p.o.): +; Preventive effect on ST depression, 7 hours ([3]; 10 mg/kg p.o.): -; Preventive effect on ST depression, 1 hour ([3]; 30 mg/kg p.o.): +; preventive effect on the ST depression (in words) [3]: more prolonged preventive effect on the ST depression than diltiazem hydrochloride
O=C(CCCN1CCN(c2ccccc2)CC1)NC1c2ccccc2CSc2ccccc21 (stereo not shown) [6(1), 11-[4-(4-phenyl-1-piperazinyl)butyrylamino]-6,11-dihydrodibenzo[b,e]thiepin] |  |  |  | 0.5 | +0.15 ± 0.05 ΔmV | 5 | +0.07 ± 0.01 ΔmV | preventive effect on the ST elevation comparable to that of diltiazem hydrochloride |  |  |  |  |  | 
O=C(CCCN1CCN(c2ccc(F)cc2)CC1)NC1c2ccccc2C=Cc2ccccc21 [79(3), 5-[4-[4-(4-fluorophenyl)-1-piperazinyl]butyrylamino]-5H-dibenzo[a,d]cycloheptene] |  |  |  | 5 | +0.12 ± 0.02 ΔmV | 0.5 | +0.04 ± 0.02 ΔmV | preventive effect on the ST elevation comparable to that of diltiazem hydrochloride | + | + | + | + | + | peak time (preventive effect on ST elevation) ([2]; 1.0 mg/kg): 0.5 min; ST elevation, administn. of M (8 μg) after administn. of test compd. (at peak time) ([2]; 1.0 mg/kg, ** P < 0.01): +0.08 ± 0.01 ΔmV; Preventive effect on ST depression, 5 hours ([3]; 3 mg/kg p.o.): -; Preventive effect on ST depression, 7 hours ([3]; 10 mg/kg p.o.): -; preventive effect on the ST depression (in words) [3]: more prolonged preventive effect on the ST depression than diltiazem hydrochloride; LD50 at 168 h (in vivo; ip, single intraperitoneal administration): > 1000 mg/kg; LD50 at 168 h (in vivo; single oral administration): > 4000 mg/kg
COc1ccc([C@@H]2Sc3ccccc3N(CCN(C)C)C(=O)[C@@H]2OC(C)=O)cc1 [Diltiazem hydrochloride, reference compound] | 0.333 |  |  | 10 | +0.15 ± 0.03 ΔmV | 10 | +0.06 ± 0.02 ΔmV |  | - | - | + | - | - | peak time (preventive effect on ST elevation) ([2]; 1.0 mg/kg): 5 min; ST elevation, administn. of M (8 μg) after administn. of test compd. (at peak time) ([2]; 1.0 mg/kg, ** P < 0.01): +0.09 ± 0.02 ΔmV; Preventive effect on ST depression, 3 hours ([3]; 10 mg/kg p.o.): +; Preventive effect on ST depression, 1 hour ([3]; 30 mg/kg p.o.): +; Preventive effect on ST depression, 5 hours ([3]; 30 mg/kg p.o.): +; Peak time (time of maximum hypotensive effect) ([1]; 50 mg/kg): 0.333 h; decrease compared with the initial blood pressure at 5 hours after dosing ([1]; oral): 3%; reduction of blood pressure (in words) ([1]; oral, 30 mg/kg): did not reduce significantly blood pressures; maximum effect (decrease compared with the initial blood pressure) ([1]; oral, 50 mg/kg): 13%; time of maximum effect ([1]; oral, 50 mg/kg): 20 min
O=C(CCCN1CCN(c2ccc(F)cc2)CC1)NC1c2ccccc2CSc2ccccc21 (stereo not shown) [Example 1(1), 11-[4-[4-(4-fluorophenyl)-1-piperazinyl]butyrylamino]-6,11-dihydrodibenzo[b,e]thiepin] |  |  |  |  |  |  |  |  |  |  |  |  |  | duration of antihypertensive activity (in words) [1]: longer duration of antihypertensive activity than that of the commercially available calcium antagonists
O=C(CCCN1CCN(c2ccc(F)cc2)CC1)NC1c2ccccc2CSc2cc(F)ccc21 (stereo not shown) [Example 42, 3-fluoro-11-[4[4-(4-fluorophenyl)-1-piperazinyl]butyrylamino]-6,11-dihydrodibenzo[b,e]thiepin] | 4 | 12-14% | 4 to 5 |  |  |  |  |  |  |  |  |  |  | 
O=C(CCCN1CCN(c2ccc(F)cc2)CC1)NC1c2ccccc2CS(=O)(=O)c2ccccc21 (stereo not shown) [Example 138, 11-[4-[4-(4-fluorophenyl)-1-piperazinyl]butyrylamino]-6,11-dihydrodibenzo[b,e]thiepin-5,5-dioxide] | 5 | 12-14% | 4 to 5 |  |  |  |  |  |  |  |  |  |  | 
COC(=O)C1=C(C)NC(C)=C(C(=O)OC)C1c1ccccc1[N+](=O)[O-] [Nifedipine, reference compound] |  |  |  | 20 | +0.08 ± 0.02 ΔmV |  |  |  |  |  |  |  |  | peak time (preventive effect on ST elevation) ([2]; 0.03 mg/kg): 10 min; ST elevation, administn. of M (8 μg) after administn. of test compd. (at peak time) ([2]; 0.03 mg/kg): +0.17 ± 0.02 ΔmV; Preventive effect on ST depression, 1 hour ([3]; 0.01 mg/kg p.o.): -; Preventive effect on ST depression, 3 hours ([3]; 0.01 mg/kg p.o.): -; Preventive effect on ST depression, 1 hour ([3]; 0.1 mg/kg p.o.): +; Preventive effect on ST depression, 3 hours ([3]; 0.1 mg/kg p.o.): -; Preventive effect on ST depression, 5 hours ([3]; 0.1 mg/kg p.o.): -; Peak time (time of maximum hypotensive effect) ([1]; 3 mg/kg): 0.5 h; decrease compared with the initial blood pressure at 5 hours after dosing ([1]; oral): 7%; maximum hypotensive effect (decrease compared with the initial blood pressure) ([1]; oral, 3 mg/kg): 17%; time of maximum hypotensive effect ([1]; oral, 3 mg/kg): 0.5 h
